Test results from US20110046187A1, “ASSESSING CONGESTIVE HEART RISK IN PATIENTS TREATED OR POTENTIALLY TO BE TREATED WITH A PEROXISOME-PROLIFERATOR-ACTIVATOR-RECEPTOR-GAMMA AGONIST OR A THIAZOLIDINEDIONE” (BG MEDICINE, INC., priority 2007, published 2011).
Structures can show the parent of a compound that is named as a salt.

Tests used:
Type in all cases: in vivo
BNP mRNA [1] = experiment: Transcriptional profiling (Affymetrix GeneChip) of BNP mRNA levels in mouse T2DM animal models (db/db and HFD); design: key to Direction & Significance, BNP mRNA: Significant difference between the Group A and Group B median values for BNP mRNA; NS: No Significant Difference based on statistical comparison of Galectin-3 mRNA values in Group A and Group B; settings: drug/Disease (vehicle); for MFC (median fold change) BNP mRNA: oral twice/day 14 days; for Direction & Significance, BNP mRNA: Day 14
Galectin-3 mRNA = experiment: Transcriptional profiling (Affymetrix GeneChip) of Galectin-3 mRNA levels in mouse T2DM animal models (db/db and HFD); design: key to Direction & Significance, Galectin-3 mRNA: Significant difference between the Group A and Group B median values for Galectin-3 mRNA; NS: No Significant Difference based on statistical comparison of Galectin-3 mRNA values in Group A and Group B; settings: for Direction & Significance, Galectin-3 mRNA / MFC (median fold change) Galectin-3 mRNA: drug/Disease (vehicle), Day 14; for MFC (median fold change) Galectin-3 mRNA: oral twice/day 14 days; for Effect on Gal-3 mRNA levels in adipose tissue, muscle or liver: mouse models of T2DM (text summary of Table 1)
BNP mRNA [2] = experiment: BNP mRNA level in muscle, Clinical, Rosi/Placebo
[3] = Adipose, HFD-06 high fat diet mouse
[4] = Liver, HFD-06 high fat diet mouse
[5] = Muscle, HFD-06 high fat diet mouse
[6] = Adipose, HFD-07 high fat diet mouse
[7] = Liver, HFD-07 high fat diet mouse
[8] = Muscle, HFD-07 high fat diet mouse

| Compound | MFC (median fold change) BNP mRNA (BNP mRNA [1]; Adipose, DB-07 db/db mouse) | MFC (median fold change) BNP mRNA (BNP mRNA [1]; [3]) | Direction & Significance, BNP mRNA (BNP mRNA [1]; Adipose, DB-07 db/db mouse) | Direction & Significance, BNP mRNA (BNP mRNA [1]; [3]) | MFC (median fold change) BNP mRNA (BNP mRNA [1]; Liver, DB-07 db/db mouse) | MFC (median fold change) BNP mRNA (BNP mRNA [1]; [4]) | Direction & Significance, BNP mRNA (BNP mRNA [1]; Liver, DB-07 db/db mouse) | Direction & Significance, BNP mRNA (BNP mRNA [1]; [4]) | MFC (median fold change) BNP mRNA (BNP mRNA [1]; Muscle, DB-07 db/db mouse) | MFC (median fold change) BNP mRNA (BNP mRNA [1]; [5]) | Direction & Significance, BNP mRNA (BNP mRNA [1]; Muscle, DB-07 db/db mouse) | Direction & Significance, BNP mRNA (BNP mRNA [1]; [5]) | Direction & Significance, Galectin-3 mRNA (Galectin-3 mRNA; Adipose, DB-07 db/db mouse) | MFC (median fold change) Galectin-3 mRNA (Galectin-3 mRNA; Adipose, DB-07 db/db mouse) | Direction & Significance, Galectin-3 mRNA (Galectin-3 mRNA; [3]) | MFC (median fold change) Galectin-3 mRNA (Galectin-3 mRNA; [3]) | Direction & Significance, Galectin-3 mRNA (Galectin-3 mRNA; Liver, DB-07 db/db mouse) | MFC (median fold change) Galectin-3 mRNA (Galectin-3 mRNA; Liver, DB-07 db/db mouse) | Direction & Significance, Galectin-3 mRNA (Galectin-3 mRNA; [4]) | MFC (median fold change) Galectin-3 mRNA (Galectin-3 mRNA; [4]) | other results |
| --- | --- | --- | --- | --- | --- | --- | --- | --- | --- | --- | --- | --- | --- | --- | --- | --- | --- | --- | --- | --- | --- |
| COc1ccc(Cl)cc1C(=O)NCCc1ccc(S(=O)(=O)NC(=O)NC2CCCCC2)cc1 [Glyburide, glyburide] | 1.02 | 1.16 | Increase NS | Increase NS | 0.85 | 0.93 | Decrease NS | Decrease NS | 0.83 | 3.17 | Decrease NS | Increase NS | Increase NS | 1.10 | Increase NS | 1.04 | Increase NS | 1.01 | Increase NS | 1.02 | Direction & Significance, Galectin-3 mRNA (Galectin-3 mRNA; Muscle, DB-07 db/db mouse): Increase NS; MFC (median fold change) Galectin-3 mRNA (Galectin-3 mRNA; Muscle, DB-07 db/db mouse): 1.19; Direction & Significance, Galectin-3 mRNA (Galectin-3 mRNA; [5]): Decrease NS; MFC (median fold change) Galectin-3 mRNA (Galectin-3 mRNA; [5]): 0.87; Effect on Gal-3 mRNA levels in adipose tissue, muscle or liver (Galectin-3 mRNA): Neither glyburide nor metformin treatment of the mouse models of T2DM had any significant effect |
| CN(C)C(=N)N=C(N)N [Metformin, metformin] | 0.87 | 0.67 | Decrease NS | Decrease NS | 0.88 | 1.03 | Decrease NS | Increase NS | 1.09 | 2.17 | Increase NS | Increase NS | Increase NS | 1.10 | Increase NS | 1.08 | Increase NS | 1.06 | Increase NS | 1.08 | Direction & Significance, Galectin-3 mRNA (Galectin-3 mRNA; Muscle, DB-07 db/db mouse): Decrease NS; MFC (median fold change) Galectin-3 mRNA (Galectin-3 mRNA; Muscle, DB-07 db/db mouse): 0.90; Direction & Significance, Galectin-3 mRNA (Galectin-3 mRNA; [5]): Decrease NS; MFC (median fold change) Galectin-3 mRNA (Galectin-3 mRNA; [5]): 0.82; Effect on Gal-3 mRNA levels in adipose tissue, muscle or liver (Galectin-3 mRNA): Neither glyburide nor metformin treatment of the mouse models of T2DM had any significant effect |
| CN(CCOc1ccc(CC2SC(=O)NC2=O)cc1)c1ccccn1 (centres unmarked) [Rosi, rosiglitazone maleate] | – | – | – | – | – | – | – | – | – | – | – | – | – | – | – | – | – | – | – | – | MFC (median fold change) BNP mRNA (BNP mRNA [1]; Adipose, DB-06 db/db mouse): 1.13; MFC (median fold change) BNP mRNA (BNP mRNA [1]; [6]): 1.29; Direction & Significance, BNP mRNA (BNP mRNA [1]; [6]): Signif; MFC (median fold change) BNP mRNA (BNP mRNA [1]; Liver, DB-06 db/db mouse): 1.68; MFC (median fold change) BNP mRNA (BNP mRNA [1]; [7]): 0.77; MFC (median fold change) BNP mRNA (BNP mRNA [1]; Muscle, DB-06 db/db mouse): 0.58; MFC (median fold change) BNP mRNA (BNP mRNA [1]; [8]): 1.40; Direction & Significance, Galectin-3 mRNA (Galectin-3 mRNA; Adipose, DB-06 db/db mouse): Signif; MFC (median fold change) Galectin-3 mRNA (Galectin-3 mRNA; Adipose, DB-06 db/db mouse): 0.55; Direction & Significance, Galectin-3 mRNA (Galectin-3 mRNA; [6]): Signif; MFC (median fold change) Galectin-3 mRNA (Galectin-3 mRNA; [6]): 0.64; Direction & Significance, Galectin-3 mRNA (Galectin-3 mRNA; Liver, DB-06 db/db mouse): Signif; MFC (median fold change) Galectin-3 mRNA (Galectin-3 mRNA; Liver, DB-06 db/db mouse): 1.33; MFC (median fold change) Galectin-3 mRNA (Galectin-3 mRNA; [7]): 1.07; Direction & Significance, Galectin-3 mRNA (Galectin-3 mRNA; Muscle, DB-06 db/db mouse): Signif; MFC (median fold change) Galectin-3 mRNA (Galectin-3 mRNA; Muscle, DB-06 db/db mouse): 0.87; MFC (median fold change) Galectin-3 mRNA (Galectin-3 mRNA; [8]): 0.80; MFC (median fold change) BNP mRNA (BNP mRNA [2]): 0.63 |
